{"source": "patent US20150174145A1", "about": "“Pharmaceutical compounds with the structure of ionic salts with antibiotic and anticancer action” (priority 2013, published 2015)", "key": {"E. coli ATCC 25922 [1]": {"system": "E. coli ATCC 25922", "test": "Minimum inhibitory concentration, ampicillin sensitive strains", "format": "cell-based, Escherichia coli", "settings": "Escherichia coli, ATCC25922; E. coli ATCC 25922, Gram-negative, ampicillin sensitive; read-out: Minimum inhibitory concentrations", "protocol": "(§1) Each one of the 24 combinations of the ionic liquids were tested with following 9 bacteria: • Escherichia coli ATCC25922 • Staphylococcus aureus ATCC25923 • Klebsiella pneumonia • Staphylococcus epidermidis • Enterococcus fecalis • E. coli Tem CTXM9 • E. coli CTXM2 • E. coli AmpCMox2 • Saccharomyces cerevisiae PYCC 4072\n(§2) These bacteria were tested in Vitek2 systems from bioMérieux. Bacteria were grown on Trypticase soy agar for 24 hours at 37° C. prior to each test. The bacteria assays were made in Tryptic Soy Broth."}, "K. pneumoniae": {"system": "K. pneumoniae", "test": "Minimum inhibitory concentration, ampicillin sensitive strains", "format": "cell-based, Klebsiella pneumonia", "settings": "K. pneumoniae, Gram-negative, ampicillin sensitive", "protocol": "as §1, §2"}, "E. fecalis [2]": {"system": "E. fecalis", "test": "Minimum inhibitory concentration, ampicillin sensitive strains", "format": "cell-based, Enterococcus fecalis", "settings": "Enterococcus; E. fecalis, Gram-positive, ampicillin sensitive; read-out: Minimum inhibitory concentrations", "protocol": "as §1, §2"}, "S. epidermis [3]": {"system": "S. epidermis", "test": "Minimum inhibitory concentration, ampicillin sensitive strains", "format": "cell-based, Staphylococcus epidermidis", "settings": "Staphylococcus epidermidis; S. epidermis, Gram-positive, ampicillin sensitive; read-out: Minimum inhibitory concentrations", "protocol": "as §1, §2"}, "E. coli CTX M2": {"system": "E. coli CTX M2", "test": "Minimum inhibitory concentration, ampicillin resistant strains", "format": "cell-based", "settings": "Escherichia coli, CTXM2; E. coli CTX M2, ampicillin resistant; read-out: Minimum inhibitory concentrations", "protocol": "as §1, §2"}, "E. coli TEM CTX M9 [4]": {"system": "E. coli TEM CTX M9", "test": "Minimum inhibitory concentration, ampicillin resistant strains", "format": "cell-based", "settings": "Escherichia coli; E. coli TEM CTX M9, ampicillin resistant; read-out: Minimum inhibitory concentrations", "protocol": "as §1, §2"}, "E. coli ATCC 25922 [5]": {"system": "E. coli ATCC 25922", "test": "Growing rates in presence and absence of compound", "format": "cell-based, Escherichia coli", "settings": "E. coli ATCC 25922, conc. tested 0.5 mM", "protocol": "as §2"}, "S. aureus ATCC 25923": {"system": "S. aureus ATCC 25923", "test": "Growing rates in presence and absence of compound", "format": "cell-based, Staphylococcus aureus", "settings": "S. aureus ATCC 25923, conc. tested 0.0005 mM", "protocol": "as §2"}, "K. pneumonia": {"system": "K. pneumonia", "test": "Growing rates in presence and absence of compound", "format": "cell-based, Klebsiella pneumonia", "settings": "conc. tested 0.5 mM", "protocol": "as §2"}, "E. fecalis [6]": {"system": "E. fecalis", "test": "Growing rates in presence and absence of compound", "format": "cell-based, Enterococcus fecalis", "settings": "conc. tested 0.005 mM", "protocol": "as §2"}, "S. epidermis [7]": {"system": "S. epidermis", "test": "Growing rates in presence and absence of compound", "format": "cell-based, Staphylococcus epidermidis", "settings": "conc. tested 0.005 mM", "protocol": "as §2"}, "E. coli AmpC MOX2": {"system": "E. coli AmpC MOX2", "test": "Growing rates in presence and absence of compound", "format": "cell-based", "settings": "E. coli AmpC Mox2, conc. tested 0.05 mM", "protocol": "as §2"}, "E. coli TEM CTX M9 [8]": {"system": "E. coli TEM CTX M9", "test": "Growing rates in presence and absence of compound", "format": "cell-based", "settings": "E. coli TEM CTX M9, conc. tested 0.05 mM", "protocol": "as §2"}, "SF (skin fibroblasts)": {"system": "SF (skin fibroblasts)", "test": "MTT cellular viability/proliferation, primary human cells", "format": "cell-based", "settings": "Homo sapiens, Skin fibroblast, MTT assay", "protocol": "(§3) At about 70-80% confluence, cells were enzymatically detached with 0.05% trypsin and 0.5 mM EDTA and seeded at 10^4 cells cm^−2.\n(§4) After an attachment period of 24 hours, the culture medium was renewed, and supplemented with different concentrations (0.005-500 mM) of the ampicillin derived ionic liquid. Cell cultures were maintained in a 5% CO2 humidified atmosphere at 37° C.\n(§5) Cellular viability/proliferation was assessed by the MTT assay at days 1, 3 and 5 of the culture. This assay is based on the reduction of 3-(4,5-dimethylthiazol-2-yl)-2,5-diphenyltetrazolium bromide (MTT) to a purple formazan product by viable cells.\n(§6) Shortly, cultured cells were incubated at 37° C. with 0.5 mg ml −1 of MTT for 4 hours. The culture medium was then removed; the stained product dissolved with dimethylsulfoxide, and absorbance determined at 550 nm in an ELISA plate rewader. Results were expressed as absorbance per cm2.\n(§7) The values of the […] (IC50) and the median lethal dose (LD50) were obtained from nonlinear regression analysis of concentration effect curves using the GGraphPad Prism Software.\n(§8) It is used to measure the efficacy of a compound in inhibiting any biochemical or biological function."}, "[9]": {"system": "gingival fibroblasts (GF)", "test": "MTT cellular viability/proliferation, primary human cells", "format": "cell-based", "settings": "Homo sapiens, Fibroblast, MTT assay", "protocol": "as §3, §4, §5, §6, §7, §8"}, "[10]": {"system": "HepG2 (hepatocellular liver carcinoma cell)", "test": "MTT cellular viability/proliferation, cancer cell lines", "format": "cell-based, human", "settings": "Homo sapiens; HepG2, MTT assay", "protocol": "as §3, §4, §5, §6, §7, §8"}, "[11]": {"system": "MG63 (osteosarcoma cell line)", "test": "MTT cellular viability/proliferation, cancer cell lines", "format": "cell-based, human", "settings": "Homo sapiens, MG-63; MG63, MTT assay", "protocol": "as §3, §4, §5, §6, §7, §8"}, "[12]": {"system": "PC3 (prostate cancer cell line)", "test": "MTT cellular viability/proliferation, cancer cell lines", "format": "cell-based, human", "settings": "Homo sapiens; PC3, MTT assay", "protocol": "as §3, §4, §5, §6, §7, §8"}, "[13]": {"system": "RKO (colon cancer cell line)", "test": "MTT cellular viability/proliferation, cancer cell lines", "format": "cell-based, human", "settings": "Homo sapiens, MTT assay", "protocol": "as §3, §4, §5, §6, §7, §8"}, "[14]": {"system": "T47D (ductal breast epithelial tumour cell line)", "test": "cells", "format": "cell-based", "settings": "Homo sapiens; T47D, MTT assay", "protocol": "as §3, §4, §5, §6, §7, §8"}}}
{"smiles": "CC1(C)S[C@@H]2[C@H](NC(=O)[C@H](N)c3ccccc3)C(=O)N2[C@H]1C(=O)O", "note": "[[P6,6,6,14][Amp]]", "values": [{"measurement": "MIC", "setting": "E. coli ATCC 25922 [1]", "result": 2500, "unit": "µM"}, {"measurement": "Minimum inhibitory concentrations", "setting": "K. pneumoniae", "result": 5000, "unit": "µM"}, {"measurement": "MIC", "setting": "K. pneumoniae; Klebsiella pneumoniae, read-out: Minimum inhibitory concentrations", "result": 5000, "unit": "µM"}, {"measurement": "MIC", "setting": "E. fecalis [2]", "result": 50, "unit": "µM"}, {"measurement": "MIC", "setting": "S. epidermis [3]", "result": 50, "unit": "µM"}, {"measurement": "MIC", "setting": "E. coli CTX M2", "result": 500, "unit": "µM"}, {"measurement": "MIC", "setting": "E. coli TEM CTX M9 [4]", "result": 500, "unit": "µM"}, {"measurement": "Growing rate with compound", "setting": "E. coli ATCC 25922 [5]", "result": "0.0007 ± 0.0001", "unit": "min⁻¹"}, {"measurement": "Decreasing rate", "setting": "E. coli ATCC 25922 [5]; with compound vs no compound", "result": 0.035}, {"measurement": "Growing rate with compound", "setting": "S. aureus ATCC 25923", "result": "0.0004 ± 0.0003", "unit": "min⁻¹"}, {"measurement": "Decreasing rate", "setting": "S. aureus ATCC 25923; with compound vs no compound", "result": 0.077}, {"measurement": "Growing rate with compound", "setting": "K. pneumonia", "result": "0.00045 ± 0.00007", "unit": "min⁻¹"}, {"measurement": "Decreasing rate", "setting": "K. pneumonia; with compound vs no compound", "result": 0.18}, {"measurement": "Growing rate with compound", "setting": "E. fecalis [6]", "result": "0.0009 ± 0.0004", "unit": "min⁻¹"}, {"measurement": "Decreasing rate", "setting": "E. fecalis [6]; with compound vs no compound", "result": 0.28}, {"measurement": "Growing rate with compound", "setting": "S. epidermis [7]", "result": "0.0006 ± 0.0000", "unit": "min⁻¹"}, {"measurement": "Decreasing rate", "setting": "S. epidermis [7]; with compound vs no compound", "result": 0.13}, {"measurement": "Growing rate with compound", "setting": "E. coli AmpC MOX2", "result": "0.00077 ± 0.00006", "unit": "min⁻¹"}, {"measurement": "Decreasing rate", "setting": "E. coli AmpC MOX2; with compound vs no compound", "result": 0.24}, {"measurement": "Growing rate with compound", "setting": "E. coli TEM CTX M9 [8]", "result": "0.00067 ± 0.00006", "unit": "min⁻¹"}, {"measurement": "Decreasing rate", "setting": "E. coli TEM CTX M9 [8]; with compound vs no compound", "result": 0.20}, {"measurement": "IC50", "setting": "SF (skin fibroblasts)", "result": 249, "unit": "nM"}, {"measurement": "IC50", "setting": "[9]", "result": 173, "unit": "nM"}, {"measurement": "IC50", "setting": "[10]", "result": 322, "unit": "nM"}, {"measurement": "IC50", "setting": "[11]", "result": 312, "unit": "nM"}, {"measurement": "IC50", "setting": "[12]", "result": 354, "unit": "nM"}, {"measurement": "IC50", "setting": "[13]", "result": 180, "unit": "nM"}, {"measurement": "IC50", "setting": "[14]", "result": 264, "unit": "nM"}]}
